Measured values as given in US10155027B2, “Alpha-galactosidase A and 1-deoxygalactonojirimycin co-formulation for the treatment of fabry disease” (Amicus Therapeutics, Inc., priority 2012, dated 2018).

T1: α-Gal A (Homo sapiens, UniProt P06280)
T1 construct: purchased JCR Pharmaceuticals Co. Ltd, (Japan) JR-051; host or cells: CHO cells
T1 sequence (P06280 32-429): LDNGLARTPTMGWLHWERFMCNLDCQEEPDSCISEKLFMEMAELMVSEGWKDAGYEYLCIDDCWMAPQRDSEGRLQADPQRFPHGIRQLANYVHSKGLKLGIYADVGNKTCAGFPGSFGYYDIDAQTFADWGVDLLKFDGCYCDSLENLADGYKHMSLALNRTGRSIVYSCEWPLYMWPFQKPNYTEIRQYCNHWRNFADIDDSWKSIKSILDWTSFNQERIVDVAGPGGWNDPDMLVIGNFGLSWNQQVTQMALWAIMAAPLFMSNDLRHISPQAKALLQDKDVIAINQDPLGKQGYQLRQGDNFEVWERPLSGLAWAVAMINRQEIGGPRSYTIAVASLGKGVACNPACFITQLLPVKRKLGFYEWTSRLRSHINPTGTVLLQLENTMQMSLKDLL

B1: Fabrazyme: Agalsidase beta, produced by recombinant DNA technology in a Chinese hamster ovary (CHO) cell line; Genzyme Corporation (protein, UniProt P06280 32-429, looked up)
Alpha-galactosidase A: T1 sequence (P06280 32-429)

Key:
[1] = Plasma PK of α-Gal A (JR-051) in WT mice following single IV infusion; format: in vivo; details: JR-051 1 mg/kg single IV infusion
Protocol: (§1) Table 1 describes the molar ratios of these compounds:
(§2) Plasma was collected at 0, 15, 30, 45, 60, and 90 min, and 24 hrs post-JR-051. Skin, heart, and kidney were collected 24 hrs post-JR-051. JR-051 plasma levels and tissue uptake were assessed by activity and Western blotting (see Methods section below). A comparison was made between JR-051 administered alone and JR-051 co-formulated with AT1001 groups.
Diluted plasma (1:50) in Lysis Buffer (˜10 μg total protein) was subjected to SDS-PAGE on 4-12% polyacrylamide gels (Invitrogen, Grand Island, N.Y.), transferred to nitrocellulose membranes (Invitrogen), and immunoblotted with rabbit anti-human α-Gal A primary antibody (1:2000 dilution; from Shire Pharmaceuticals, Cambridge, Mass.). Protein bands were detected using peroxidase-conjugated goat anti-rabbit secondary antibody (Jackson Immunosearch Labs, West Grove, Pa.) in combination with enhanced chemiluminescence (Pierce, Rockford, Ill.). Blots were scanned on an Image Station 4000R (Kodak, Rochester, N.Y.).

[2] = Tissue uptake of α-Gal A (JR-051) in WT mice following single IV infusion; format: in vivo; details: data not shown
Protocol: as §1, §2
A BCA Protein Assay (Pierce, Rockford, Ill.) was used according to the manufacturer's instructions to determine total protein concentration in tissue lysates. […] For tissue Westerns exactly same procedure was followed as described above for plasma except that 50 μg tissue lysate was used.

GL-3 = GL-3 reduction in skin, heart and kidney of GLA KO mice, repeat IV bolus administration; format: in vivo; details: DGJ 0 mg/kg, 4 biweekly IV bolus
Protocol: Repeat administration of co-formulated product was tested in fourteen-week old GLA KO mice. The mice received four biweekly (once every two weeks) IV bolus injections of 0.5, 1 or 3 mg/kg α-Gal A (JR-051) alone, or co-formulated with 0.3, 1, 3 or 10 mg/kg of DGJ (AT1001). Plasma and tissue levels of α-Gal A, and tissue levels of GL-3 were measured.
Mouse tissues were homogenized in water (1:16.7 tissue:water) using a Fast Prep homogenizer (Pro Scientific, Thorofare, N.J.). Acetone:methanol (50:50) was added at 5× the volume of the homogenate. Samples were vortexed, re-homogenized in the Fast Prep system, and centrifuged at 10600 g for 10 minutes at room temperature. Each supernatant (200 μL of the upper organic portion) was prepared for solid phase extraction by addition of 200 μL dimethyl sulfoxide (DMSO), 50 μL lactosyl ceramide internal standard (from bovine buttermilk; Matreya, LLC, Pleasant Gap, Pa.) at a final concentration of 1.4 μg/mL, and 600 μL of water:methanol (13:87), followed by vortexing. Solid phase extraction was conducted on a pre-conditioned Bond Elut 40 μm, 100 mg C-18 column (Varian Inc, Palo Alto, Calif.) by washing with 67:23:10 methanol:acetone:water and elution with 1 mL of 9:1 acetone:methanol into silanized glass culture tubes containing 200 μL 0.2 mM sodium acetate in DMSO. Total GL-3 levels were determined from 20 μL of each sample extract by liquid chromatography-tandem mass spectroscopy (LC-MS/MS). LC was conducted using an acetone:methanol:acetonitrile (ACN) with sodium acetate binary mobile phase system (mobile phase A: 40:60 methanol:water with 0.1 mM sodium acetate; mobile phase B: 75:15:10 acetone:methanol:ACN with 0.1 mM sodium acetate) with a flow rate of 0.5 mL/min on a C18 column (Aqua 3 μm 100×3.0 mm, 125 A, Phenomenex, Torrance, Calif.). The final GL-3 elution condition was 90% mobile phase B. MS/MS analysis was carried out under positive ion mode (ESI+) and twelve different isoforms of GL-3 [C16:0, C18:0, C20:0, C22:1, C22:0, C23:0, C22:0(2OH), C24:2, C24:1, C24:0, C24:1(2OH), C24:0(2OH)] as well as internal standard were identified in each sample. The following transitions were monitored: m/z 1046.70→m/z 884.7 for C16:0; m/z 1074.8→m/z 912.8 for C18:0; m/z 1102.8→m/z 940.8 for C20:0; m/z 1128.8→m/z 966.8 for C22:1; m/z 1130.9→m/z 968.8 for C22:0; m/z 1144.9→m/z 982.8 for C23:0; m/z 1146.9→m/z 984.8 for C22:0(2OH); m/z 1154.9→m/z 992.8 for C24:2; m/z 1156.9→m/z 994.8 for C24:1; m/z 1158.9→m/z 996.9 for C24:0; m/z 1172.9→m/z 1010.8 for C24:1(2OH); m/z 1174.9→m/z 1012.8 for C24:0(2OH); and m/z 982.9→m/z 820.8 for the lactosyl ceramide internal standard. For quantitation, the area counts for each isoform were determined and then summed to obtain the total GL-3 area counts. The ratio of the total GL-3 area counts to that of the internal standard was determined and used to calculate the final concentration of GL-3 in each sample based on a linear least squares fit equation applied to an 11-point calibration curve prepared in DMSO. Total GL-3 measurements were normalized to the wet tissue weight of each sample.

α-Gal A = biological target: T1, α-Gal A; assay: α-Gal A stability in whole blood ex vivo at 37° C.; format: in vitro ADME; details: 5 nM and 50 nM α-Gal A formulated without DGJ
Protocol: The effect of co-formulating α-Gal A with DGJ on α-Gal A stability in blood ex vivo was examined. Time-dependent loss of α-Gal A activity in whole blood at 37° C. was determined. 5 nM and 50 nM α-Gal A was formulated with or without 10 μM DGJ.

[3] = tested on: R301Q fibroblast cells derived from Fabry patients; assay: α-Gal A uptake and GL-3 reduction in R301Q Fabry patient fibroblasts; format: cell-based, human; details: 0.5 nM enzyme co-formulated with 0.1-100 μM DGJ vs alone
Protocol: The effect of co-formulating α-Gal A with DGJ on α-Gal A uptake and GL-3 reduction in R301Q and C52S fibroblast cells derived from Fabry patients was determined. 0.5 nM α-Gal A was tested alone or co-formulated with 0.1, 1.0, 10 or 100 μM DGJ. […] The graph bars represent the average of compiled data from 4 separate experiments.
Further reduction after co-incubation with DGJ is also similar between the two enzymes (˜40-50% of baseline). The graph bars represent the average of compiled data from 4 separate experiments.

Row | Molecule | AUC [1] | T1/2 [1] | effect on α-Gal A uptake in skin [2] | GL-3% reduction in heart (GL-3; α-Gal A 0.5 mg/kg) | GL-3% reduction in kidney (GL-3; α-Gal A 0.5 mg/kg) | GL-3% reduction in skin (GL-3; α-Gal A 0.5 mg/kg) | GL-3% reduction in heart (GL-3; α-Gal A 1 mg/kg) | GL-3% reduction in kidney (GL-3; α-Gal A 1 mg/kg) | GL-3% reduction in skin (GL-3; α-Gal A 1 mg/kg) | GL-3% reduction in heart (GL-3; α-Gal A 3 mg/kg) | GL-3% reduction in kidney (GL-3; α-Gal A 3 mg/kg) | GL-3% reduction in skin (GL-3; α-Gal A 3 mg/kg) | half-life of α-Gal A in whole blood (α-Gal A) | increase of enzyme uptake by DGJ [3]
1 | JR-051: recombinant human α-Gal A produced in CHO cells transformed with an expression vector encoding the human α-Gal A gene (JCR Pharmaceuticals) | 17960 nmol/mL | 6.6 min | no significant effect | 72.1% | 42.7% | 85.7% | 82.7% | 54.9% | 90.7% | 93.7% | 69.5% | 97.4% | 4 to 5 h | up to 3 fold
2 | B1 | – | – | – | – | – | – | – | – | – | – | – | – | – | up to 4.6 fold
